Reference: patent publication US20240261318A1, “ANTI-AGING COSMETIC COMPOSITION” (LG HOUSEHOLD & HEALTH CARE LTD., priority 2021, published 2024)

Test system: FGF10
Test: Analysis of mRNA expression of FGF10 in human dermal fibroblasts (qPCR)
Assay type: cell-based
Conditions: for Expression level (% relative to control): FGF10 mRNA, human dermal fibroblasts, 48 hours; for mRNA expression of FGF 10: human fibroblasts treated with the single substance, result in words
Experimental: Human dermal fibroblasts (neonatal) were purchased from Lonza and then cultured in a carbon dioxide incubator at 37° C. and 5% carbon dioxide. In this case, as a medium for culturing, a medium containing Dulbecco's modified eagle medium (DMEM; Thermo Fisher Scientific) with 10% fetal bovine serum (FBS) and 1% antibiotics (penicillin/streptomycin) was used. Afterward, 20000 cells were seeded in a 6-well plate, and 24 hours later, the DMEM culture medium was treated with each sample having compositions shown in Tables 1 and 2 and cultured again for another 48 hours. As a control, a DMEM culture medium not including any other components was used.

SMILES	Expression level (% relative to control) (Table 1, sample at 8 ppm)	Expression level (% relative to control) (Table 2, sample at 8 ppm)	mRNA expression of FGF 10	Expression level (% relative to control) (Table 1, sample at 0.2 ppm)	Expression level (% relative to control) (Table 2, sample at 0.2 ppm)
Nc1ncnc2c1ncn2[C@@H]1O[C@H](CO)[C@@H](O)[C@H]1O [Adenosine, reference compound]	88%	88%	no effect on increasing the expression of FGF 10	–	–
C=C1CC[C@@H]2[C@](C)(CO)[C@H](O)CC[C@@]2(C)[C@@H]1C/C=C1/C(=O)OC[C@H]1O [Andrographolide, andrographolide]	–	–	promoted	141%	–
Nc1ncnc2c1ncn2[C@@H]1O[C@H](CO)C[C@H]1O [Cordycepin, cordycepin]	148%	–	promoted	–	102%
O=c1c(O)c(-c2ccc(O)c(O)c2)oc2cc(O)cc(O)c12 [Quercetin, quercetin]	–	–	promoted	–	63%
